Reference: US12202866B2, “Therapeutic nanoconjugates and uses thereof” (UNIVERSITAT AUTÒNOMA DE BARCELONA (UAB), priority 2017, dated 2025)
Marks after values point to notes of the source that are not given here.

Columns and labels:
[1] = tested on: subcutaneous CXCR4^+ SW1417 CRC tumor; test: Induction of DNA double strand breaks and apoptosis in tumor tissue, SC SW1417 model; format: in vivo, mouse; details: for number of apoptotic figures in tumor tissue (Hoechst nuclear condensation or defragmentation): 24 h after injection; for number of DSBs foci in tumors (anti-gH2AX IHC): five hours after treatment
Procedure: (§1) The SC SW1417 mouse model was used to determine the capacity of the nanoconjugate to induce DNA damage and apoptosis in tumor tissue, as well as the kinetics of CXCR4 expression in the membrane of tumor cells after treatment, regarding the fraction of CXCR4 expressing tumor cells and their intensity, since CXCR4^+ are the target cells for the nanoconjugate. […] The mice had been treated with equimolecular dosages of T22-GFP-H6, free oligo-FdU or Buffer, in which also were determined the levels of CXCR4 expression in tumor tissue at the different time points.

[2] = tested on: CXCR4^+ cancer cells in SC SW1417 CRC tumor; test: CXCR4+ cancer cell fraction in tumor tissue along time after single dose (anti-CXCR4 IHC); format: in vivo, mouse; details: 24 h, 48 h, 72 h after equimolecular dose
Procedure: as §1

[3] = tested on: CXCR4^+ SW1417 CRC metastases; test: Prevention of metastasis protocol, SC+ORT CXCR4+ SW1417 CRC model; format: in vivo, NOD/SCID mice
Procedure: Thus, a SC+ORT model, was produced: when SC tumors reached a volume of 700 mm3, mice were sacrificed by cervical dislocation and tumours were excised, discarding the necrotic areas. Three hundred mg of viable tumour tissue was then cut into pieces and disaggregated in a mix of 0.05% trypsin (Invitrogen) and 100 mg/ml DNase (Sigma-Aldrich). The mix was pipetted 30 times, using a 10 ml pipette, and incubated for 10 minutes at 37° C. with shaking. It was then re-pipetted 30 times, using 10 ml, 3 ml and 1 ml pipettes, and re-incubated for 5 minutes at 37° C. with shaking. This re-pipetting step was then repeated. The obtained SW1417 single-cell suspension was filtered through a cell strainer and centrifuged at 1,000 g for 10 minutes before counting the cells. Then 2×10^6 cells, […] resuspended in 50 μl of media, were microinjected in the cecum of each mouse, following the method described above.
The SC+ORT metastatic CRC model developed in NOD/SCID mice was used to evaluate the capacity of the nanoconjugate for metastasis prevention.
(§2) At necropsy, the number and size of visible metastases in the organs where dissemination is expected in colorectal cancer (lymph nodes, liver, lung and peritoneum) were recorded for each mouse in all compared groups. Also the number of metastatic foci that emitted bioluminiscence (derived from the SW1417-luci CRC cells) were counted ex vivo in the target organs for metastasis, using the IVIS® 200-Spectrum (Perkin-Elmer). Samples for histopathological and immunohistochemical analyses were collected and processed. Two independent observers analyzed H&E stained samples to count the number and measure the size of all observed metastatic foci in three (metastasis prevention experiment) or six (regression of metastasis experiment) sections of each organ in each mouse. The images were taken and the measurements were performed with an Olympus microscope with the CellD Olympus software (v3.3). […] The obtained results were used to study a possible correlation between CXCR4^+ CCF and antimetastatic effect at the different sites.
(§3) In order to analyze differences between control and experimental groups of affected mice in metastatic rates at the different organs, Fisher's exact test was used. The Mann-Whitney test was used to compare number and size of metastatic foci in the affected organs among groups. All quantitative values were expressed as mean±SE and the statistical tests were performed using SPSS version 11.0 (IBM, New York, USA). Differences among groups was considered significant at a p<0.05.

[4] = tested on: CXCR4^+ SW1417 CRC metastases; test: Regression of established metastasis protocol, orthotopic CXCR4+ SW1417 CRC model; format: in vivo, Swiss nude mice; details: for LN foci, mean foci number per mouse / Lung foci, mean foci number per mouse: Regression protocol, 6 histology sections, mean + SE; for LN foci, mean foci number per mouse: 20 μg (or equimolecular) q3d x10 i.v.
Procedure: Swiss nude mice were anesthetized with ketamine and xylazine, exteriorizing their cecum by a laparotomy. 2×106 CXCR4^+ SW1417-luci CRC cells (expressing luciferase, to allow ex vivo bioluminescent identification of metastatic foci in affected organs at the end of therapy) were suspended in […] of modified Eagle's medium, and loaded into a sterile micropipette. The cell suspension was slowly injected, under a binocular lens, with an approximate 30° angle and its tip introduced 5 mm into the cecal wall. Afterward, a slight pressure was applied with a cotton stick at approximately 2 mm from the injection point in the direction of the pipette axis. The pipette was pulled out and the area around the injection cleaned with 3% iodine. After injection, the gut was returned to the abdominal cavity and closed with surgical staples.
The orthotopic and metastatic CRC model developed in Swiss nude mice was employed to perform experiments of metastasis regression. […] The experiment was finished when the first animal of the buffer-treated-group had to be euthanized. See below the studied parameters to evaluate the antimetastatic effect.
as §2, §3

CXCR4^+ SW1417 CRC cells = test: Internalization in CXCR4+ SW1417 CRC cells (flow cytometry, AMD3100 competition); format: cell-based, human; details: antagonist 1:10 protein:antagonist molar ratio, 1 h before nanoconjugate
Procedure: CXCR4+ SW1417-luc CRC cells were cultured in modified Eagle's medium (Gibco, Rockville, MD) supplemented with 10% fetal calf serum (Gibco), and incubated at 37° C. and 5% CO2 in a humidified atmosphere. […] Fluorescence emission was measured with a D detector (530/30 nm band pass filter). To assess specificity for CXCR4 receptor-mediated internalization, competition studies were performed incubating CRC SW1417 cells with the CXCR4 antagonist AMD3100 (Sigma Aldrich) in a 1:10 (protein:antagonist) molar ratio for 1 h before exposure to the nanoconjugate at […] for an additional hour.
The cells were washed in phosphate-buffered saline (Sigma-Aldrich). Live cells were recorded by TCS-SP5 confocal laser scanning microscopy (Leica Microsystems, Heidelberg, Germany) using a Plan Apo 63×/1.4 (oil HC×PL APO lambda blue) objective as described. To determine particle localization inside the cell, stacks of 10-20 sections forevery 0.5 μm of cell thickness were collected and three-dimensional models were generated using Imaris version 6.1.0 software (Bitplane, Zurich, Switzerland).

[5] = tested on: CXCR4^+ HeLa human cervical carcinoma cell line; test: Internalization in CXCR4+ HeLa cells (flow cytometry, AMD3100 competition); format: cell-based; details: pre-treatment, 1:10 molar ratio
Procedure: To assess specificity for CXCR4 receptor mediated internalization, competition studies incubating CXCR4^+ HeLa cells with the CXCR4 antagonist AMD3100 (octahydrochloride hydrate, Sigma-Aldrich) were performed in a 1:10 (Protein:antagonist) molar ratio for 1 h before exposure to the nanoconjugate, as previously described for the T22-GFP-H6.
Nuclei were labeled with Hoechst 33342 (Life Technologies) and plasma membranes CellMask™ Deep Red (Life Technologies).

[6] = tested on: subcutaneous CXCR4^+ SW1417 CRC tumor; test: Tumor uptake and tumor cell internalization in subcutaneous CXCR4+ SW1417 CRC model; details: fluorescence emission
Procedure: (§4) SC model was used to assess tumor uptake and nanoconjugate internalization and in vivo competition studies using co-administration of the CXCR4 antagonist AMD3100.
(§5) Two hours, 5 h and 24 h after the administration, the mouse was euthanized to resect the tumor and register ex vivo the intensity of the green fluorescence emitted by the nanoconjugated that biodistributed to tumor tissue using the IVIS® 200-Spectrum (Perkin Elmer, MA, USA). Following, tumor tissue samples were taken, processed and performed immunohistochemistry (IHC) to determine the presence or absence of the corresponding nanoconjugate into cytosol of tumor cells using an anti-GFP antibody (1:300; Santa-Cruz Biotechnology, CA, USA). […] Apoptosis was assessed determining nuclear condensation with Hoechst staining of tumor tissue sections and counting the number of condensed or defragmented nuclei in five high-power magnification fields in different sections for each tumor using the Olympus DP73 digital camera and the CellD Imaging 3.3 programme (Olympus, Tokyo, Japan).

[7] = Nanoparticle size by dynamic light scattering; format: physicochemical; details: Example 2; unit not given
Procedure: The volume and size distribution of the nanoparticles was determined by dynamic light scattering at 633 nm (Zetasizer Nano ZS, Malvern Instruments Limited, Malvern, Worcestershire, UK). Nanoconjugate size was also measured using purified samples, diluted to 0.2 mg/mL and contrasted by evaporation of 1 nm platinum layer in carbon-coated grids, before being visualized in a Hitachi H-7000 transmission electron microscope (TEM), as described33.

[8] = tested on: subcutaneous CXCR4^+ SW1417 CRC tumor; details: mouse, in vivo, iv
Procedure: as §4, §5

[9] = Prevention protocol, 3 histology sections, mean + SE

For “5′-(FdU)5-3′ [free oligo-FdU, reference compound]”, the “number of apoptotic figures in tumor tissue (Hoechst nuclear condensation or defragmentation)” value [1] was 7.1±0.6, the “number of DSBs foci in tumors (anti-gH2AX IHC)” value [1] was 13.4±0.7 and the “CXCR4+ CCF in tumor tissue along time” value [2] was “remained similar to its basal level along time”. For the same compound, the “LN foci, mean foci number per mouse” value ([3]; Prevention protocol, 20 μg (or equimolecular) q3d x12 i.v., 3 histology sections, mean + SE) was 3.1 ± 0.4, the “Liver foci, mean foci number per mouse” value [3, 9] was 1.0 ± 0.3 ^c and the “Lung foci, mean foci number per mouse” value [3, 9] was 4.5 ± 1.6 ^e. For the same compound, the “Peritoneal foci, mean foci number per mouse” value [3, 9] was 2.8 ± 1.0 ^g, the “total or mean foci number at any site (LN, liver, lung, peritoneum)” value ([3]; compared to buffer-treated animals) was “did not reduce” and the “Metastasis Liver [%]” value ([3]; end of prevention experiment) was “[55]^a %”. The “Metastasis Liver, affected/total mice” value ([3]; end of prevention experiment) was 6/11, the “Metastasis Lung [%]” value ([3]; end of prevention experiment) was “[55]^c %” and the “Metastasis Lung, affected/total mice” value ([3]; end of prevention experiment) was 6/11. The “Metastasis Lymph nodes [%]” value ([3]; end of prevention experiment) was “[100] %”, the “Metastasis Lymph nodes, affected/total mice” value ([3]; end of prevention experiment) was 11/11 and the “Metastasis Peritoneal [%]” value ([3]; end of prevention experiment) was “[45] %”. For the same compound, the “Metastasis Peritoneal, affected/total mice” value ([3]; end of prevention experiment) was 5/11, the “remaining CXCR4^+ CCF in liver, lung and peritoneal metastatic tissue (anti-CXCR4 IHC)” value ([3]; end of prevention experiment) was “does not reduce” and the “Metastasis Size, Liver” value ([3]; mean foci size) was 9.6 μm^2 × 10^−3. For the same compound, the “Metastasis Size, Lung” value ([3]; mean foci size) was 17.9 μm^2 × 10^−3, the “Metastasis Size, Lymph nodes” value ([3]; mean foci size) was 77.0 μm^2 × 10^−3 and the “Metastasis Size, Peritoneal” value ([3]; mean foci size) was 304.8 μm^2 × 10^−3. For the same compound, the “Primary tumor Positive/#Mice” value ([3]; mice bearing a primary tumor out of total mice per group) was 11/11, the “Primary tumor [%]” value ([3]; percent of mice bearing a primary tumor) was “[100] %” and the “primary tumor growth by in vivo bioluminescence emission” value ([3]; prevention experiment, compared to buffer-treated mice) was “no significant inhibition”. For the same compound, the “LN foci, mean foci number per mouse” value [4] was 0.8 ± 0.2, the “Lung foci, mean foci number per mouse” value [4] was 2.0 ± 0.7 ^j,m and the “primary tumor growth by in vivo bioluminescence emission” value ([4]; regression experiment, compared to buffer treated animals) was “significantly inhibited tumor growth”.

In the case of `c1cc(CN2CCCNCCNCCCNCC2)ccc1CN1CCCNCCNCCCNCC1` [AMD3100, reference compound], the “block of T22-GFP-H6-FdU internalization by CXCR4 antagonist” value (CXCR4^+ SW1417 CRC cells) is reported as “completely blocked”, the “block of T22-GFP-H6-FdU internalization in HeLa cells by CXCR4 antagonist pre-treatment” value [5] is reported as “Complete internalization block” and the “block of T22-GFP-H6-FdU tumor uptake by CXCR4 antagonist given prior to the nanoconjugate” value [6] is reported as “completely blocked”.

For “T22-GFP-H6: targeting vector: fusion protein nanoparticle of peptide T22 (CXCR4 ligand), green fluorescent protein and a Histidine tail”, the “size determined by dynamic light scattering” value [7] was 13.4+0.11, the “number of apoptotic figures in tumor tissue (Hoechst nuclear condensation or defragmentation)” value [1] was 3.0±0.3 and the “number of DSBs foci in tumors (anti-gH2AX IHC)” value [1] was “undetectable”. For the same compound, the “LN foci, mean foci number per mouse” value [4] was 1.1 ± 0.2 ^i, the “Lung foci, mean foci number per mouse” value [4] was 1.7 ± 0.6 ^l and the “internalization into CXCR4^+ tumor cell cytosol by anti-GFP immunohistochemistry” value [8] was “internalized”.
